Calls of active or inactive are those of the source.
How the values were obtained:
[1] = THP-1 cell cytotoxicity, cytotoxicity control, set 4 (AID 504911); format: functional; conditions: Mycobacterium tuberculosis
[2] = Vero cell cytotoxicity, dose response, cytotoxicity control for M. tuberculosis growth inhibitor project, Vero cells, purified and synthesized compounds, set 4 (AID 504854); format: functional; conditions: Mycobacterium tuberculosis
Orexin receptor type 2 [3] = target: T1, Orexin receptor type 2 (Homo sapiens, UniProt O43614); experiment: Counterscreen assay for antagonists of the orexin 1 receptor (OX1R; HCRTR1): Homogeneous Time Resolved Fluorescence (HTRF)-based cell-based dose response assay for antagonists of the orexin 2 receptor (OX2R; HCRTR2), run by assay provider.; format: functional
[4] = (§1) Counterscreen for antagonists of the orexin 1 receptor (OX1R; HCRTR1): Fluorescence-based cell-based high throughput dose response assay to identify antagonists of the parental CHO cell line. [Related pubchem assays (depositor defined):AID434989, AID435008, AID463079, AID485270, AID492963, AID492964, AID492965, AID493232, AID504699, AID504701]; format: functional
[5] = target: T2, Orexin/Hypocretin receptor type 1 (Homo sapiens, UniProt O43613); experiment: Homogeneous Time Resolved Fluorescence (HTRF)-based cell-based high throughput dose response assay for antagonists of the orexin 1 receptor (OX1R; HCRTR1). [Related pubchem assays (depositor defined):AID434989, AID435008, AID463079, AID485270, AID492963, AID492964, AID492965, AID493232, AID504717, AID504718]; format: functional
[6] = target: T2, Orexin/Hypocretin receptor type 1; experiment: Fluorescence-based cell-based high throughput dose response assay for antagonists of the orexin 1 receptor (OX1R; HCRTR1). [Related pubchem assays (depositor defined):AID434989, AID435008, AID463079, AID485270, AID492963, AID492964, AID492965, AID493232, AID504717, AID504718]; format: functional
Orexin receptor type 2 [7] = target: T1, Orexin receptor type 2; experiment: Counterscreen assay for antagonists of the orexin 1 receptor (OX1R; HCRTR1): Fluorescence-based cell-based dose response assay for antagonists of the orexin 2 receptor (OX2R; HCRTR2), run by assay provider.; format: functional
CHO-K1 = experiment: as §1, with “Homogeneous time resolved fluorescence (HTRF)-based” for “Fluorescence-based”, “cell-based” for “cell-based high throughput”, “CHO-K1” for “CHO”; format: functional; conditions: Cricetulus griseus;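 also: potency for inhibition of ATP-stimulated IP1 production as antagonists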
[8] = target: Cell division cycle 7-related protein kinase (Homo sapiens, UniProt O00311); format: functional;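 also: value obtained from a kinome-wide kinase panel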
Wee1-like protein kinase = Wee1-like protein kinase (Homo sapiens, UniProt P30291); experiment: Navigating the Kinome. Panel member name: WEE1; format: functional
[9] = target: Vascular endothelial growth factor receptor 2 (Homo sapiens, UniProt P35968); format: functional
Aurora kinase A = Aurora kinase A (Homo sapiens, UniProt O14965); format: functional;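 also: value from the Navigating the Kinome kinase panel profiling, panel entry STK6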
Aurora kinase B = Aurora kinase B (Homo sapiens, UniProt Q96GD4); format: functional
[10] = target: T3, Microphthalmia-associated transcription factor (Homo sapiens, UniProt O75030); experiment: reducers of TRPM1 reporter luminescence, concentration series – cell-based, SK-MEL-5, cherry-picked, set 3, MITF inhibitor project, dose response (AID 493073); format: functional;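 also: SK-MEL-5 melanoma cells with luciferase driven by the MITF target TRPM1 promoter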
T3 sequence (O75030 whole entry): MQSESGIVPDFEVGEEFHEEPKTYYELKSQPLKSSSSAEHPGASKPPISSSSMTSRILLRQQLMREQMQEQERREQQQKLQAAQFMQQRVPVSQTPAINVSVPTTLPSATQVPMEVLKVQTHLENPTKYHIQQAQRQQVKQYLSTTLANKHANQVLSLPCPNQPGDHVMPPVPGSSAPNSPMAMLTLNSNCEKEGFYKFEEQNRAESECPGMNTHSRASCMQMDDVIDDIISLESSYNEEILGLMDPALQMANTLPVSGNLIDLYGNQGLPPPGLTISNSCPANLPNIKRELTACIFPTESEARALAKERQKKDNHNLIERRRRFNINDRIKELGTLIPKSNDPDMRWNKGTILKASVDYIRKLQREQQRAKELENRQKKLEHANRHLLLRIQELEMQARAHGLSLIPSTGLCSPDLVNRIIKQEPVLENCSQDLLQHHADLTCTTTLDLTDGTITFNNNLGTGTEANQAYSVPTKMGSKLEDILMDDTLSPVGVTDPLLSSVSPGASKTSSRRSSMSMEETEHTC

[11] = cAMP pathway inhibition in counterscreen cell line – TR-FRET cAMP detection, counter-screen for MC4R biased antagonist project, dose response (AID 602305); format: functional, cell-based;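 also: U2OS cells stimulated with forskolin near its EC80 as the cAMP inducer; potency is for inhibition of forskolin-stimulated cAMP signaling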
Melanocortin receptor 4 = Melanocortin receptor 4 (Homo sapiens, UniProt P32245); experiment: inhibitors of MC4R cAMP signaling – cell-based, TR-FRET, biased antagonists, dose response (AID 602298); format: functional;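 also: antagonist potency against agonist-stimulated cAMP production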
[12] = Luminescence Cell-Based Dose Retest to Confirm Inhibitors of Cancer Stem Cells. [Related pubchem assays (depositor defined):AID2717, AID2721]; format: functional; conditions: Homo sapiens
[13] = target: Neuropeptides B/W receptor type 1 (Homo sapiens, UniProt P48145); experiment: human NPBW1 receptor blockade, IC50 – cell-based, fluorescence, dose response, set 5, late-stage follow-up (AID 588566); format: functional
[14] = target: Melanin-concentrating hormone receptor 1 (Homo sapiens, UniProt Q99705); experiment: Late-stage fluorescence-based counterscreen for antagonists of the G-protein coupled receptor 7 (GPR7): cell-based dose response assay to identify antagonists of the melanin-concentrating hormone receptor 1 (MCHR1) Set 5.; format: functional
LIM domain kinase 1 = LIM domain kinase 1 (Homo sapiens, UniProt P53667); experiment: Navigating the Kinome. Panel member name: LIMK1; format: functional
[15] = target: Vascular endothelial growth factor receptor 1 (Homo sapiens, UniProt P17948); format: functional;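 also: measured within a kinome-wide profiling panel, FLT1 as the panel member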
[16] = target: Dual specificity tyrosine-phosphorylation-regulated kinase 1A (Homo sapiens, UniProt Q13627); format: functional;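 also: measured against DYRK1A as one member of a broad kinome profiling panel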
[17] = target: Death-associated protein kinase 3 (Homo sapiens, UniProt O43293); format: functional;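 also: measured as one member of a kinome-wide profiling panel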
Death-associated protein kinase 3, sequence (O43293 whole entry): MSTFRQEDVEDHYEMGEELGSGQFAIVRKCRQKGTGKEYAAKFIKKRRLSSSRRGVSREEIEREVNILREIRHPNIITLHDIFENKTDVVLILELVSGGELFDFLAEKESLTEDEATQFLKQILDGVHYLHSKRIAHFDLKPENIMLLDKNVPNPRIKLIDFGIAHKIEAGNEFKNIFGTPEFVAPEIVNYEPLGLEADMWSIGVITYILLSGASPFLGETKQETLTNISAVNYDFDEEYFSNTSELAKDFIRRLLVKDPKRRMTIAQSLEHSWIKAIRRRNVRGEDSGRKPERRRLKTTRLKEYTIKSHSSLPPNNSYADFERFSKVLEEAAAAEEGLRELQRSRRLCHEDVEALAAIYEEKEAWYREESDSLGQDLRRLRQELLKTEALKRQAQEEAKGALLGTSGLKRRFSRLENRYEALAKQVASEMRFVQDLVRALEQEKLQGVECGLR

T1 sequence (O43614 whole entry): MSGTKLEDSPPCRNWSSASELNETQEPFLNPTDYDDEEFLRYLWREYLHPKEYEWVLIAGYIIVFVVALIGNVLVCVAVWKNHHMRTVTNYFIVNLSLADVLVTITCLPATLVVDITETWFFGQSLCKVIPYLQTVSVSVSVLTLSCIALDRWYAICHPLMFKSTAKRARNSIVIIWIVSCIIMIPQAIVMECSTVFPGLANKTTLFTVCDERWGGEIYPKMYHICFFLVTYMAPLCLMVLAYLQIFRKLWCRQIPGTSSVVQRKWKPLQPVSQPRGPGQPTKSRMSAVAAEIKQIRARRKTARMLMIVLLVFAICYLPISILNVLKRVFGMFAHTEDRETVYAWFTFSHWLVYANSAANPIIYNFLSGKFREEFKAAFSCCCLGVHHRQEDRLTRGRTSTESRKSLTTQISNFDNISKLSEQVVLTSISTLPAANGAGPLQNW
T2 sequence (O43613 whole entry): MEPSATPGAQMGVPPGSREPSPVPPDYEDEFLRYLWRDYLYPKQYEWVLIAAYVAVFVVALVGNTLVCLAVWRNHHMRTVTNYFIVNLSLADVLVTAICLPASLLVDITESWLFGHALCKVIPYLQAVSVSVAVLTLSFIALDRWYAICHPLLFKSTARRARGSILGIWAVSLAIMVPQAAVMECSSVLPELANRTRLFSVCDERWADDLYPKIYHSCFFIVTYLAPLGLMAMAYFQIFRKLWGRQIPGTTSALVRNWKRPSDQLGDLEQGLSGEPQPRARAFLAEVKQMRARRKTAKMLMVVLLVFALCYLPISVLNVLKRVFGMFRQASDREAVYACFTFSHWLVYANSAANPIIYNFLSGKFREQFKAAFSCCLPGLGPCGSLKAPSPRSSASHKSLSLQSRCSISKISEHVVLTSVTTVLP
Wee1-like protein kinase, sequence (P30291 whole entry): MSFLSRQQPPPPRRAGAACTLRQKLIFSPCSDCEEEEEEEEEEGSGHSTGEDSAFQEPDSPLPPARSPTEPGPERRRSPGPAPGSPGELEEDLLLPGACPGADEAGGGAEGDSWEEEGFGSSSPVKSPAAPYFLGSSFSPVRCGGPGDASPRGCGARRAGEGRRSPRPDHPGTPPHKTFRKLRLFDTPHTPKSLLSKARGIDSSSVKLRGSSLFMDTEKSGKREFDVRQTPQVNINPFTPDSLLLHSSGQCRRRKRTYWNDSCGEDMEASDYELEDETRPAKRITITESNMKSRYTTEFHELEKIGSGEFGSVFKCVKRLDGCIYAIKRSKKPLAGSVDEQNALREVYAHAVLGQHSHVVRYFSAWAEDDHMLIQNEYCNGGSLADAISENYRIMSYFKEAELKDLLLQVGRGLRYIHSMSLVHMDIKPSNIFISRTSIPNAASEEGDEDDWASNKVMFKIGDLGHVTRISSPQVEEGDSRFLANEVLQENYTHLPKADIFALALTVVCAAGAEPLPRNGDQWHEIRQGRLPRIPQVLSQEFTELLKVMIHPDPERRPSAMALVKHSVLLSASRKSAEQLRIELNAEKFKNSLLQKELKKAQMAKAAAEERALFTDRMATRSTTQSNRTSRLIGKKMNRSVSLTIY
Melanocortin receptor 4, sequence (P32245 whole entry): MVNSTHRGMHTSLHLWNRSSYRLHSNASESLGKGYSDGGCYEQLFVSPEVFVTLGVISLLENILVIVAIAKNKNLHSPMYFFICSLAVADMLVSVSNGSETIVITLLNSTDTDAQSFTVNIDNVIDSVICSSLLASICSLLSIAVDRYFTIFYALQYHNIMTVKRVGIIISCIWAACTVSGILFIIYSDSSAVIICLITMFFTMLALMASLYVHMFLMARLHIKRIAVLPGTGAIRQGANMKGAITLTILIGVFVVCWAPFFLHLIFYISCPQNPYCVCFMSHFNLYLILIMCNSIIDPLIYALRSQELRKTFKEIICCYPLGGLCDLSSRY
Melanin-concentrating hormone receptor 1, sequence (Q99705 whole entry, the tested form may be a part): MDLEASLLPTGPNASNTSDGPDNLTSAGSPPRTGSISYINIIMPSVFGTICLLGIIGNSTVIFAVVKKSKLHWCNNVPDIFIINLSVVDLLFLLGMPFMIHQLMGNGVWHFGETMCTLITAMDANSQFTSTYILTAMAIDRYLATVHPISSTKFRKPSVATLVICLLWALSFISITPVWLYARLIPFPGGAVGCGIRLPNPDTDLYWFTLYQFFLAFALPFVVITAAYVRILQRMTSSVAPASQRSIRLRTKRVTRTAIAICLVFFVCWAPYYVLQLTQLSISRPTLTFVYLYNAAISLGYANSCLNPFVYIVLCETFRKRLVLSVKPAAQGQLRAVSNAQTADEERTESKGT
LIM domain kinase 1, sequence (P53667 whole entry, the tested form may be a part): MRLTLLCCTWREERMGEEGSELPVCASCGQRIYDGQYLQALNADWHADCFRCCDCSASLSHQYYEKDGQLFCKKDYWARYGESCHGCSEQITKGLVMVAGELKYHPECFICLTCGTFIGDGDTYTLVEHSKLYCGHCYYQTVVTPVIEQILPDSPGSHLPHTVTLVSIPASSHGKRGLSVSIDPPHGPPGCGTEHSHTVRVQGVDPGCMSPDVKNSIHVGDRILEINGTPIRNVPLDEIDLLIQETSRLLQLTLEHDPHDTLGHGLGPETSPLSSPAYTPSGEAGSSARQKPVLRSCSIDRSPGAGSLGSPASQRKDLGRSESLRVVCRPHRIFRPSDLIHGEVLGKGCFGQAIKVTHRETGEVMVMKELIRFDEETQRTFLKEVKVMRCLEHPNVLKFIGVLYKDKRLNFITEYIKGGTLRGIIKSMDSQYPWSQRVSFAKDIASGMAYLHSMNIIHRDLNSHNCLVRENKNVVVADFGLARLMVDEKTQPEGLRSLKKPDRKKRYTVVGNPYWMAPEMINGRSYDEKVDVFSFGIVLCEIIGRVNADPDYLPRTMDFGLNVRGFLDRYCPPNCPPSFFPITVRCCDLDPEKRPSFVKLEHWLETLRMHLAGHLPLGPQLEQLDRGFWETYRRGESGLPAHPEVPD
Neuropeptides B/W receptor type 1, sequence (P48145 whole entry): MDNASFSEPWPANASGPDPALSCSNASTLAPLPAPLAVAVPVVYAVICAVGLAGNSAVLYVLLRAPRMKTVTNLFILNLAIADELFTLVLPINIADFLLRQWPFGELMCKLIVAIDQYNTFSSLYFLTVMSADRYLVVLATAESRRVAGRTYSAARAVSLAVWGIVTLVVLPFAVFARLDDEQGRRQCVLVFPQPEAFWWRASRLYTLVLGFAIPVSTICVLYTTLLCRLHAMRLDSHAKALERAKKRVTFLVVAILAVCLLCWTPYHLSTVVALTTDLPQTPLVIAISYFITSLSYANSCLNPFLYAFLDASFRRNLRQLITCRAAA
Cell division cycle 7-related protein kinase, sequence (O00311 whole entry): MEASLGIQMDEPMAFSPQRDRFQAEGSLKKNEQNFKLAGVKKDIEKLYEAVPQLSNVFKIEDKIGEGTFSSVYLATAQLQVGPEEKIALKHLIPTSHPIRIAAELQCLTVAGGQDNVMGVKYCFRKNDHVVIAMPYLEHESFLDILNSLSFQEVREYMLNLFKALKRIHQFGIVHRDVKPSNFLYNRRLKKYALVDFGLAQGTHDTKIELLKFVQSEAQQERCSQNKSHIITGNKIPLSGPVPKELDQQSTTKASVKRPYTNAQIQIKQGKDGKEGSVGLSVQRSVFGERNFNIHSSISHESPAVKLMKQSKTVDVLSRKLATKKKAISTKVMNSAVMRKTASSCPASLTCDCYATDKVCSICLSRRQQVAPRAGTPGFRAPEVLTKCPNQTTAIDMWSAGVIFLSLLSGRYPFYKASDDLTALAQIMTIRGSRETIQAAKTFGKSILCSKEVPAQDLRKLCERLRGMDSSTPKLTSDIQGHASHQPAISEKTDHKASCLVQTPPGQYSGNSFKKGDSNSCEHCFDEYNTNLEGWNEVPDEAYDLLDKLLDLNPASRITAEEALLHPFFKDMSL
Aurora kinase B, sequence (Q96GD4 whole entry): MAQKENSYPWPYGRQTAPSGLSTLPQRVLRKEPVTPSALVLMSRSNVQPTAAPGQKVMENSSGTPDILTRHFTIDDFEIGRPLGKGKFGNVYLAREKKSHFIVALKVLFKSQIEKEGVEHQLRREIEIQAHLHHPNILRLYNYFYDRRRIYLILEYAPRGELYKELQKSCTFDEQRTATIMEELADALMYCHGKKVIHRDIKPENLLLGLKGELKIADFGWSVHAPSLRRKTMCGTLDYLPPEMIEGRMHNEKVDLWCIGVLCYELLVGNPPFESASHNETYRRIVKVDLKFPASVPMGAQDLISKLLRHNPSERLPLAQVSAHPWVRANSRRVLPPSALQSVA
Aurora kinase A, sequence (O14965 whole entry): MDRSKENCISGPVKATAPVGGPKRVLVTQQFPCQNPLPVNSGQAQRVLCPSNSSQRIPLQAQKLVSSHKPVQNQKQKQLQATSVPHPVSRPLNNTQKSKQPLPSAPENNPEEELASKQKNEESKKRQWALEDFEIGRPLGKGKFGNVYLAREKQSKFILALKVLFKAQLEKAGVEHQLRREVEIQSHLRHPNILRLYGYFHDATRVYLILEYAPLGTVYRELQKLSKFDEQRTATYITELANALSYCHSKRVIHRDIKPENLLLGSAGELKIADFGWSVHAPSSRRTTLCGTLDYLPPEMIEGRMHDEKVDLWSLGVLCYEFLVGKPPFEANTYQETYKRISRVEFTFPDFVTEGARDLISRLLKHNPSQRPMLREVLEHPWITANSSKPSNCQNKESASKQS

For `O=C(CSc1nc2ccccc2c(=O)[nH]1)NC1CCCC1`, the CC50 [1] was > 100 µM (active) and the CC50 [2] was > 100 µM (active).

In the case of `Cc1ccc([C@@H]2CC=C(C(=O)O)[C@H](c3cccc(Cl)c3)N2S(=O)(=O)c2ccccc2C)cc1`, the IC50 (Orexin receptor type 2 [3]) is reported as 0.67 µM (active), the IC50 [4] is reported as 18.7 µM (inactive) and the IC50 [5] is reported as 0.601 µM (active). The IC50 [6] was 4.6 µM (active), the IC50 (Orexin receptor type 2 [7]) was 3.9 µM (active) and the IC50 (CHO-K1) was > 66.2 µM (inactive).

In the case of `Fc1ccc(Nc2ncnc(Nc3ccc4[nH]ncc4c3)n2)cc1`, the Ki [8] is reported as 0.126 µM (active) and the Ki (Wee1-like protein kinase) is reported as > 3.16 µM (inactive).

In the case of `CCS(=O)(=O)Nc1ccc2c(c1)C(=NO)c1ccccc1-2`, the Ki [9] is reported as 3.16 µM (active), the Ki (Aurora kinase A) is reported as 0.631 µM (active) and the Ki (Aurora kinase B) is reported as 0.0316 µM (active).

For `CCOC(=O)C(=Cc1ccc(-n2ccnc2)cc1)C(=O)OCC`, the AC50 [10] was 9.38 µM (active), the IC50 [11] was > 64.6 µM (inactive) and the IC50 (Melanocortin receptor 4) was > 64.6 µM (inactive). The AC50 [12] was 2.95 µM (active).

In the case of `CCOC(=O)C(C#N)c1c(Cl)cnn(Cc2cccc3ccccc23)c1=O` (stereo not drawn), the IC50 [13] is reported as 0.571 µM (active) and the IC50 [14] is reported as 7.76 µM (active).

With `CCc1ccc(NC(=O)c2cnn3c(-c4ccccc4)ccnc23)cc1` the Ki (LIM domain kinase 1) was 3.16 µM (active).

With `O=c1sn(-c2ccc3c(c2)OCO3)c(=O)n1Cc1ccccc1` the Ki [15] was 2 µM (active), the Ki [16] was 1.26 µM (active) and the Ki [17] was 3.16 µM (active).

— ChEMBL document CHEMBL1201862, “PubChem BioAssay data set” (2004)
